Values of other authors as cited in patent US9156886B2, “Cyclosporin analogues for preventing or treating hepatitis C infection” (priority 2009, dated 2015).

How the values were obtained:
hepatitis C virus = conditions: published results, Antiviral Research 65(3):A41 (2005)
cyclophilin A = cyclophilin A (Homo sapiens, UniProt P62937)
Chain of cyclophilin A (P62937 whole entry, species assumed): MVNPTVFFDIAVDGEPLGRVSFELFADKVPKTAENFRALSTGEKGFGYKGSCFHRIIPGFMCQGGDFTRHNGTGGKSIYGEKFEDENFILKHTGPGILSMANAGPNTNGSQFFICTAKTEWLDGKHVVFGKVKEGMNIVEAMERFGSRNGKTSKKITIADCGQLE

C/C=C/C[C@@H](C)[C@@H](O)[C@H]1C(=O)N[C@@H](CC)C(=O)N(C)[C@H](C)C(=O)N(CC)[C@@H](C(C)C)C(=O)N[C@@H](C(C)C)C(=O)N(C)[C@@H](CC(C)C)C(=O)N[C@@H](C)C(=O)N[C@H](C)C(=O)N(C)[C@@H](CC(C)C)C(=O)N(C)[C@@H](CC(C)C)C(=O)N(C)[C@@H](C(C)C)C(=O)N1C [DEBIO-025]
inhibition of hepatitis C virus replication (hepatitis C virus): potent and selective inhibition
binding affinity for cyclophilin A (cyclophilin A): potent binding affinity
